# Article PMC9011347, “Small-Molecule Inhibitors Targeting Lipolysis in Human Adipocytes” (Journal of the American Chemical Society, 2022)
# Test system: HepG2 cells
# Test: LDH-based cytotoxicity assay
# Format: cell-based, human
# Settings: 24 h, up to a concentration of 100 μM
# Description: Figure 2 Development and characterization of the human ATGL inhibitor NG-497. (a) Structure and IC50 values of human ATGL inhibitors. (b) Dose-dependent inhibition of human ATGL by respective inhibitors. (c) ATGL activity was determined at the indicated substrate concentrations in the absence and presence of NG-497 (0.5 μM). Ki was determined by nonlinear regression analysis using GraphPad Prism. Lineweaver–Burk analysis of ATGL inhibition is shown in the inset. (d) Toxicity of NG-497 in HepG2 cells was determined after 24 h incubation at indicated concentrations. Cisplatin and DMSO were used as positive and negative controls, respectively. Cytotoxicity was determined using the Roche LDH Kit and calculated as relative LDH release compared to fully lysed cells. (e) Stability of NG-497 was analyzed via ultrahigh-performance liquid chromatography–mass spectrometry (UHPLC-MS) after incubation in human serum for 0 or 3 h at 37 °C. Atglistatin and a chemically related unstable compound were used as controls. […] NG-497 concentrations/well were determined at the indicated time points using UHPLC-MS. […] Statistical significance was determined via t test (*p < 0.05; **p < 0.01; ***p < 0.001) or ANOVA followed by Bonferroni post hoc test (^###p < 0.001). […] The detected 297 lipid species of both groups were analyzed with supervised multivariate analysis OPLS-DA and are shown as a loading plot. […]
smiles,measurement,value
CCOc1ccc(-c2cc(OC)cc(C(=O)OC(C)C)n2)cc1 [NG-497],cytotoxicity (relative LDH release),no toxic effects
